Test results as given in patent US11045473B2, “Compositions and methods for therapy of prostate cancer using drug combinations to target polyamine biosynthesis and related pathways” (Health Research, Inc., priority 2015, dated 2021).
“Also recorded” adds a separate entry of the source.

Assays:
Format in all cases: cell-based, human
ODC1 = experiment: Western blot of ODC1 in LNCaP cells treated with BENSpm; conditions: BENSpm for 96 hours
Experimental: (§1) FIG. 11 depicts a Western blot showing AMD1, ODC1, SAT1 and B-actin protein expression in wild type LNCaP cells pretreated with +/−DHT for 24 hours followed by BENSpm for 96 hours.
(§2) We next analyzed whether the metabolic stress in CaP cells caused by high biosynthetic flux to maintain polyamine pools can be enhanced by increasing the activity of SAT1. We tested whether this could cause increased secretion of acetylated polyamines, putting intracellular pools in deficit, which should necessitate more biosynthesis, and should therefore potentiate any benefit of inhibiting the MSP. To conduct this analysis we used LNCaP cells that stably overexpress SAT1 in a Tet-off system (LNG53 cells, described in Kee, K., et al. J Biol Chem 279, 27050-27058 (2004)).

SAT1 [1] = experiment: SAT1 activity in response to BENSpm treatment
Description: as §2

AMD1 = experiment: Western blot of AMD1 in LNCaP cells treated with BENSpm; conditions: BENSpm for 96 hours
Experimental: as §1, §2

LNCaP = experiment: Proliferation of wild type LNCaP, BENSpm 24 h pre-treatment then 96 hr MTDIA
Experimental: (§3) Tet was removed 24 hours prior to 96 hr treatment with MTDIA. […] Cells were pre-treated with BENSpm for 24 hours followed by 96 hr treatment with MTDIA.
as §2

SAT1 [2] = experiment: SAT1 mRNA and protein expression in LNCaP cells treated with BENSpm; conditions: BENSpm 0.1 to 10 μM
Experimental: as §1, §2

DU145 = experiment: Proliferation of DU145, BENSpm 24 h pre-treatment then 96 hr MTDIA; conditions: AR negative DU145, 2.5 μM BENSpm
Experimental: as §3, §2

MTAP [3] = experiment: Western blot of MTAP protein expression in DU145; conditions: DU145, 10 and 20 uM MTA for 4 days
Experimental: (§4) FIG. 9. (A) Proliferation curves for LNCaP, DU145 and PC3 treated with MTDIA in the absence or presence of 10 or 20 uM MTA, for 4 and (B) 8 days. […] (C) Western blot analysis of FaDu, LNCaP, and DU145 cells after indicated treatments of MTA (0, 10, or 20 uM) or the respective 4 day IC25 and IC50 dose of MTDIA for each cell line plus or minus MTA immunoblotted with antibodies against MTAP, SMS, and SRM, with B-actin as a loading control. Western blot images are representative of biological triplicates.
(§5) Western Blotting—Whole cell extracts were prepared in RIPA buffer (150 mM NaCl, 1.0% NP-40, 0.5% deoxycholate, 0.1% SDS, 50 mM Tris-HCl pH 8.0, 5 mM EDTA and 0.5 mM PMSF) supplemented with 1× proteinase inhibitor. Protein concentrations were determined by Bradford Assay (Thermo Scientific, Cat #1856209). […] MTAP for Westerns was purchased from Proteintech™ (Cat #11475-1-AP. SRM and SMS were purchased from Abcam® (Cat #ab111884 and ab156879). B-actin antibody for Westerns was purchased from Sigma-Aldrich (Cat #A5441) and GAPDH was from Santa Cruz Biotecnology Inc. (Cat #sc-25778). Films were scanned using the Biorad ChemiDoc XRS, and band intensities were calculated using Image Lab™. Intensity values were normalized to B-actin loading control band intensities and made relative to control treatment conditions.

MTAP [4] = experiment: Western blot of MTAP protein expression in FaDu; conditions: 10 and 20 uM MTA for 4 days
Experimental: as §4, §5

MTAP [5] = experiment: Western blot of MTAP protein expression in LNCaP; conditions: MTA treatment
Experimental: as §4, §5

Row | SMILES | effect on ODC1 (ODC1) | SAT1 activity, dose dependent increase (SAT1 [1]; (+) dihydrotestosterone (DHT) conditions) | SAT1 activity, dose dependent increase (SAT1 [1]; (−) DHT conditions) | effect on AMD1 (AMD1) | sensitivity to MTDIA (LNCaP; 2.5 μM BENSpm) | effect on proliferation (LNCaP; 2.5 μM BENSpm alone) | SAT1 mRNA (SAT1 [2]) | SAT1 protein (SAT1 [2]) | sensitivity to MTDIA (DU145) | MTAP protein expression (MTAP [3]) | MTAP protein expression (MTAP [4]) | MTAP levels (MTAP [5])
1 | CCNCCCNCCCNCCCNCC [BENSpm, N(1),N(11)-bisethylnorspermine] | minimal effects | 17-40 fold | 6-20 fold | minimal effects | more sensitive to MTDIA; also recorded: greatly increased sensitivity to MTDIA | no effect on proliferation | increased | increased | more sensitive to MTDIA; also recorded: strongly increased sensitivity to MTDIA | – | – | –
2 | CSC[C@H]1O[C@@H](n2cnc3c(N)ncnc32)[C@H](O)[C@@H]1O [MTA] | – | – | – | – | – | – | – | – | – | slightly increased | slightly decreased | unchanged
